# In publication PMC9386376, “Discovery of spirooxindole-derived small-molecule compounds as novel HDAC/MDM2 dual inhibitors and investigation of their anticancer activity” (Frontiers in Oncology, 2022):
# Entries after “also recorded” stand apart in the source; their conditions may differ.
# Columns and labels:
# [1] = tested on: MDM2, p53 in MCF-7 cells; assay: Western blot, MDM2 and p53 protein level; type: cell-based, human; conditions: MCF-7, 24 h incubation
# Procedure: (§1) The cells were collected and washed with cold PBS twice, then added the protease and phosphatase inhibitors contained lysis buffer. Total cell lysates were prepared in lysis RIPA buffer (Invitrogen, CA, USA) on ice for 30 min, followed by centrifugation at 12000 rpm for 10 min at 4°C. After collecting supernatant, protein concentration was determined by a BCA protein assay. The total proteins were loaded into the 10%-15% SDS-PAGE gel and separated by sodium dodecyl sulfate polyacrylamide gel electrophoresis (PAGE). After electrophoresis, the protein was transferred to the PVDF membranes and rinsed three times in PBST buffer for 10 min each time, then sealed with 5% BSA Buffer for 1h. The membranes were incubated at 4°C for 24 h with primary antibodies and washed with TBST three times. Then incubated at room temperature for 2 h with secondary antibodies (1:10,000). The incubated PVDF membranes were taken out and rinsed with TBST three times. The protein bands were visualized through enhanced chemiluminescence (ECL) WB substrate (Millipore, MA, USA) and analyzed by ChemiScope. The antibodies including p53, MDM2, H4, and GAPDH were purchased from Abcam (Cambridge, MA, USA).
# [2] = tested on: MCF-7 cells; assay: Annexin V-FITC/PI double staining, flow cytometry; type: cell-based, human; conditions: MCF-7, 5.0 μM, 24 h
# Procedure: It was reported that the inactivation of HDAC and/or MDM2 could increase the percentage of apoptosis cells ([85]–[87]). Therefore, three methods were applied to assess the effect of MDM2-HDAC dual inhibitor 11b on the apoptosis of MCF-7 cells. […] Subsequently, the annexin V-FITC/propidium iodide (PI) double staining method was carried out to quantitatively detect the effect of compound 11b on cell apoptosis (Figure 9B).
# Cells were collected after incubation, then fixed with 75% ice-cold ethanol and stored at -20°C for 1 h. The cells were then harvested with 0.25% trypsin (without EDTA) and centrifuged at 2000 rpm for 5min. Then, the harvested cells were washed with ice-cold PBS twice and resuspended in 500 μL of 1× binding buffer, which was then added to 5 μL of annexin V-FITC and incubated at room temperature in the dark for 15 min. After adding 10 μL of propidium iodide (PI), the cells were incubated at room temperature in the dark. After another 15 min incubation, the cells were collected and analyzed by flow cytometry.
# [3] = target: T1, HDAC11 (Homo sapiens, UniProt Q96DB2); assay: HDAC isoform selectivity, HDAC11; type: biochemical; conditions: HDAC subtype panel
# T1 sequence (Q96DB2 1-347): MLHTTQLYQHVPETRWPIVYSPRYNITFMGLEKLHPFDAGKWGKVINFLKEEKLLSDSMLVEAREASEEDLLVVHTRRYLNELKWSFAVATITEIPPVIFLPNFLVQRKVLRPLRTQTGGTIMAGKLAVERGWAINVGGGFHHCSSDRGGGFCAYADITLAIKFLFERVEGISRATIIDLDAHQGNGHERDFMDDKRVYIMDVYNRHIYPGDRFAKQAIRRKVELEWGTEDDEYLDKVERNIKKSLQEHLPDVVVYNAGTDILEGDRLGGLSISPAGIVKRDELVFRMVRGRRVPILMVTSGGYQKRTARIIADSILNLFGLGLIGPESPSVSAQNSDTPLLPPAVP
# [4] = tested on: Ac-H4 in MCF-7 cells; assay: Western blot, acetylation of H4; type: cell-based, human; conditions: MCF-7, 24 h
# Procedure: as §1
# [5] = target: T2, HDAC10 (Homo sapiens, UniProt Q969S8); assay: HDAC isoform selectivity, HDAC10; type: biochemical; conditions: HDAC subtype panel
# T2 sequence (Q969S8 1-669): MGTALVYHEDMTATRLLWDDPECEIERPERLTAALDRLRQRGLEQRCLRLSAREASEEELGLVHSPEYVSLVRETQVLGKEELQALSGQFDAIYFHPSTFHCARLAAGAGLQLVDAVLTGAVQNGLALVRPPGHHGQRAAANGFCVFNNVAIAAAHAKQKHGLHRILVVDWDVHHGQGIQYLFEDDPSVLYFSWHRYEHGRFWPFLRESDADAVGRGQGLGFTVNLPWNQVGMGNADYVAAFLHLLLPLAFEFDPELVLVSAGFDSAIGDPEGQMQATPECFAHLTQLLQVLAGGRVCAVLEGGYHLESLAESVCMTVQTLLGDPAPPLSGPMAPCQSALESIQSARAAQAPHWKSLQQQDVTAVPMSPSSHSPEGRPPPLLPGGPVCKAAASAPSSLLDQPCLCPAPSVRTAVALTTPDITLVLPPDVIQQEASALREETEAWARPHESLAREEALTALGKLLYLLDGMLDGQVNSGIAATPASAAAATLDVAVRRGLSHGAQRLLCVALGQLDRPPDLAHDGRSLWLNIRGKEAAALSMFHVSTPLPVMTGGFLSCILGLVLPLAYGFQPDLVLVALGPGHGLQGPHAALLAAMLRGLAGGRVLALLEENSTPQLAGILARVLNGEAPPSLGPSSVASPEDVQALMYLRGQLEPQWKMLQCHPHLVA
# [6] = target: T3, HDAC7 (Homo sapiens, UniProt Q8WUI4); assay: HDAC isoform selectivity, HDAC7; type: biochemical; conditions: HDAC subtype panel
# T3 sequence (Q8WUI4 1-952): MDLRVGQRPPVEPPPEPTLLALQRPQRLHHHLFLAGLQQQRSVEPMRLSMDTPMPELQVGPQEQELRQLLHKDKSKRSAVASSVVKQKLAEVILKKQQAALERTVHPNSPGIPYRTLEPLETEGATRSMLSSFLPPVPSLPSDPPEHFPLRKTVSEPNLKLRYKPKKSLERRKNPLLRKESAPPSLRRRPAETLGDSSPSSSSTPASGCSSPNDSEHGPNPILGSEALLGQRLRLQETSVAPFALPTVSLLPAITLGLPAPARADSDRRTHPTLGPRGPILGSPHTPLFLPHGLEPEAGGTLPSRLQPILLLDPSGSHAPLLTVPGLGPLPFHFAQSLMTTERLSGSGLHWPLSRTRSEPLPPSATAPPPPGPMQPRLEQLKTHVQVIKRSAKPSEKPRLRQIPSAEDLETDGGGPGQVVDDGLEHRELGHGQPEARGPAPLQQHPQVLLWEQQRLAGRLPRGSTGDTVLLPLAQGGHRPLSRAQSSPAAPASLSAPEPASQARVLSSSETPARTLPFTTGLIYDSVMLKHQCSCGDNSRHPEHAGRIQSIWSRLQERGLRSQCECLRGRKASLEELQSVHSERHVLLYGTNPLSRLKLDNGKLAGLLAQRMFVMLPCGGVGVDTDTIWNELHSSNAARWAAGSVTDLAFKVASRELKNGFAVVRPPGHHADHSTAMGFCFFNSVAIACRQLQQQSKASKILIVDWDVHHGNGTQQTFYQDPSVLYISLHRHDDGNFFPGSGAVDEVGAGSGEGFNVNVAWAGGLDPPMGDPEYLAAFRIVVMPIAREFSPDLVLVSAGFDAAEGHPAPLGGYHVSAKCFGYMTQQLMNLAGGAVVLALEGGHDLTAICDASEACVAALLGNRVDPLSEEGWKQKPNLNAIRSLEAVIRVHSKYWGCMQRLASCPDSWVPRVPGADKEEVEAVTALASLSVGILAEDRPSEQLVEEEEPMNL
smiles,measurement,setting,value
"O=C(CCCCCCC(=O)N1CCC(C(=O)Nc2ccc([C@@H]3[C@H]4CSCN4[C@]4(C(=O)Nc5cc(Cl)ccc54)[C@H]3C(=O)c3ccccc3)cc2)CC1)NO [compound 11b, N-(4-((3R,6'S,7'R,7a'S)-6'-benzoyl-6-chloro-2-oxo-1',6',7',7a'-tetrahydro-3'H-spiro[indoline-3,5'-pyrrolo[1,2-c]thiazol]-7'-yl)phenyl)-1-(8-(hydroxyamino)-8-oxooctanoyl)piperidine-4-carboxamide]",protein level of MDM2 and p53 (western blot),[1],up-regulating the expression of p53; also recorded: increased the expression of p53; also recorded: dose-dependently increased the protein level of MDM2 as well as p53
same,apoptotic cells,[2],37.36%
same,IC50,[3],> 10 µM
same,"acetylation level of H4 (Ac-H4, western blot)",[4],up-regulating the expression of p53 and Ac-H4; also recorded: increased the expression of p53 and Ac-H4; also recorded: increased acetylation level of H4
same,IC50,[5],1.49 ± 0.037 µM
same,IC50,[6],> 10 µM
